{"source": "PubChem BioAssay AID602445", "about": "(National Center for Advancing Translational Sciences (NCATS), 2012)", "test_system": "mouse liver microsomes with NADPH, percent remaining", "experiment": "High Content Assay for Compounds that inhibit the Assembly of the Perinucleolar Compartment: Mouse Liver Microsome Stability with NADPH", "details": "hits give low values", "text": "The perinucleolar compartment (PNC) is a non-membrane-bound nuclear subdomain that is associated with but structurally distinct from the nucleolus. The PNC is a heritable trait, in which the number of PNCs per cell in daughter cells often mimics that of their mother cells. The PNC is heterogeneous in shape, is stable through interphase, disassembles during mitosis, and reassembles in early G1. The PNC is concentrated with newly synthesized RNA polymerase III (pol III) RNAs (MRP RNA, RNAse P H1 RNA, hY RNAs[hY1, 2, 5], Alu RNA, and SRP [7SL] RNA) and RNA binding proteins (nucleolin, PTB, CUG-BP, KSRP, Raver1, Raver2, and Rod).\nExtensive in vitro studies have shown that the PNC is unique to tumor cells and preferentially forms in tumor cells derived from solid tissues. Examination of cancer cell lines from various origins and malignant capacities has shown that PNC prevalence correlates with the malignancy of tumors and has the potential to be developed as a pan-cancer prognostic marker.\nMouse liver microsomes are generated from lysed mouse liver. […]\n1uM of compound in incubated in mouse liver microsome; the reference compound is ketanserin. […] Samples are analyzed with LC-MS/MS.", "data": [{"smiles": "N=c1c2c(-c3ccccc3)c(-c3ccccc3)n(Cc3ccccc3)c2ncn1C1CCC(O)CC1", "note": "(stereo unspecified)", "values": [{"measurement": "percent remaining", "value": 107, "unit": "%"}]}]}
